Laboratory results published in patent publication US6620419B1, “Cosmetic or dermopharmaceutical use of peptides for healing, hydrating and improving skin appearance during natural or induced ageing (heliodermia, pollution)” (Sederma, priority 1998, dated 2003).
Non-standard residues stand in square brackets, D forms with d. No end group written: not given here. *: point of attachment. Palmitoyl = CCCCCCCCCCCCCCCC(=O)*; Sar = CNCC(=O)O

Assays:
Format in all cases: cell-based
[1] = test system: explants of human skin; test: Increase in synthesis of collagen in vitro: 3H-proline incorporation in human skin explants; settings: for increase of incorporation of 3H-proline (synthesis of collagen) relative to blank tests: 72 hours, human skin explants
Protocol: The method chosen is a modification of that described by Augustin C. et al. (Skin Pharmacol. (1997); 10:63-70) in that we have used explants of human skin instead of human pulmonary fibroblasts, so as to render our results directly usable in cosmetology. These explants, from abdominal or mammary plastic surgery, are incubated for 72 hours in the presence ^3H-proline, with peptide N-Palmitoyl-[…], to three final concentrations in the culture medium (2.10^-4%, 4.10^-4% and 8.10^-4%; namely, 2, 4 and 8 ppm). The explants are then washed, the […] of each explant are separated, homogenized and lysed. The measurement of the incorporation of ^3H-proline is thus carried out in each lysat. Tests were done in triplicate. In parallel, negative controls are carried out under the same conditions but in the absence of the peptide. Positive controls, themselves, are carried out by replacing the peptide tested by vitamin C.

[2] = test system: explants of human skin; test: Increase of the synthesis of glycosaminoglycans in vitro: 3H-glucosamine incorporation in human skin explants; settings: for increase of incorporation of 3H-glucosamine (synthesis of GAGs) relative to blank experiments: 72 hours, human skin explants
Protocol: The method chosen is a modification of that described by Augustin C. et al. (Skin Pharmacol. (1997); 10:63-70) in that we have used explants of human skin instead of human pulmonary fibroblasts, so as to render our results directly usable in cosmetology.
These explants, from abdominal or mammary plastic surgery, are incubated for 72 hours in the presence ^3H-proline, with peptide N-Palmitoyl-Sarcosine-Thr-Thr-Lys-Ser, to three final concentrations in the culture medium (2.10^−4%, 4.10^−4% and 8.10^−4%; namely, 2, 4 and 8 ppm). The explants are then washed, the derma and epiderma of each explant are separated, homogenized and lysed. The measurement of the incorporation of ^3H-proline is thus carried out in each lysat. Tests were done in triplicate.
In parallel, negative controls are carried out under the same conditions but in the absence of the peptide. Positive controls, themselves, are carried out by replacing the peptide tested by vitamin C.
The same protocol as in Example No. 3 is used, except that, on the one hand, the incubation is carried out in the presence of ^3H-glucosamine instead of ^3H-proline and vitamin A acid is used as reference product in place of vitamin C.

[3] = test system: human fibroblasts; test: Cutaneous toning activity in vitro: stimulation of protein synthesis, colorimetry (Biuret reaction); settings: 24 hours, per 1000 cells
Protocol: For 24 hours, human fibroblasts from the same cellular culture are placed in the presence of the standard culture medium, supplemented or not for controls, with given concentrations of peptide (2, 4 and 8 ppm).
The stimulation of the synthesis of proteins is evaluated by colorimetry (so-called Biuret reaction).
To standardize the results, the quantity of proteins measured is expressed for 1000 cells present in the test.

## O=C1O[C@H]([C@@H](O)CO)C(O)=C1O [ascorbic acid, reference compound]
[1]; reference product at 0.5mM, same conditions
  increase of collagen synthesis: 61.4 (±5) %

## CC1=C(/C=C/C(C)=C/C=C/C(C)=C/C(=O)O)C(C)(C)CCC1 [vitamin A acid, reference compound]
[2]; reference product at 100 nM, same conditions
  increase of synthesis of GAGs: 45.3 (±2) %

## KTTKSA
[2]; 2 ppm peptide
  increase of incorporation of 3H-glucosamine (synthesis of GAGs) relative to blank experiments: 24.5 (±3) %
[2]; 4 ppm peptide
  increase of incorporation of 3H-glucosamine (synthesis of GAGs) relative to blank experiments: 48.8 (±3) %
[2]; 8 ppm peptide
  increase of incorporation of 3H-glucosamine (synthesis of GAGs) relative to blank experiments: 67.9 (±5) %

## N-Palmitoyl-Lys-Thr-Thr-Lys-Ser (Palmitoyl-KTTKS) [N-palmytoyl-Lys-Thr-Thr-Lys-Ser]
[3]; 2 ppm peptide
  increase in the concentration of proteins relative to control experiments: 14.7 (±1.0) %
[3]; 4 ppm peptide
  increase in the concentration of proteins relative to control experiments: 21.0(±2.4) %
[3]; 8 ppm peptide
  increase in the concentration of proteins relative to control experiments: 44.8(±1.0) %

## N-Palmitoyl-Sarcosine-Thr-Thr-Lys-Ser (Palmitoyl-[Sar]TTKS)
[1]; 2 ppm peptide
  increase of incorporation of 3H-proline (synthesis of collagen) relative to blank tests: 30.2 (±2) %
[1]; 4 ppm peptide
  increase of incorporation of 3H-proline (synthesis of collagen) relative to blank tests: 54.7 (±5) %
[1]; 8 ppm peptide
  increase of incorporation of 3H-proline (synthesis of collagen) relative to blank tests: 90.9 (±5) %
